Results: ChEMBL document CHEMBL3045886, “Benzothiazole Schiff-bases as potential imaging agents for -amyloid plaques in Alzheimers disease” (Med Chem Res, 2013)
Active and inactive are the calls of the source. No cut-off for these calls is given here.

Experiments:
[1] = target: T1, Amyloid-beta precursor protein (Homo sapiens, UniProt P05067); assay: Displacement of [125I]IMPY from beta amyloid (unknown origin) isolated from alzheimer's patient brain homogenates after 2 hr by gamma counting analysis
T1 sequence (P05067 whole entry): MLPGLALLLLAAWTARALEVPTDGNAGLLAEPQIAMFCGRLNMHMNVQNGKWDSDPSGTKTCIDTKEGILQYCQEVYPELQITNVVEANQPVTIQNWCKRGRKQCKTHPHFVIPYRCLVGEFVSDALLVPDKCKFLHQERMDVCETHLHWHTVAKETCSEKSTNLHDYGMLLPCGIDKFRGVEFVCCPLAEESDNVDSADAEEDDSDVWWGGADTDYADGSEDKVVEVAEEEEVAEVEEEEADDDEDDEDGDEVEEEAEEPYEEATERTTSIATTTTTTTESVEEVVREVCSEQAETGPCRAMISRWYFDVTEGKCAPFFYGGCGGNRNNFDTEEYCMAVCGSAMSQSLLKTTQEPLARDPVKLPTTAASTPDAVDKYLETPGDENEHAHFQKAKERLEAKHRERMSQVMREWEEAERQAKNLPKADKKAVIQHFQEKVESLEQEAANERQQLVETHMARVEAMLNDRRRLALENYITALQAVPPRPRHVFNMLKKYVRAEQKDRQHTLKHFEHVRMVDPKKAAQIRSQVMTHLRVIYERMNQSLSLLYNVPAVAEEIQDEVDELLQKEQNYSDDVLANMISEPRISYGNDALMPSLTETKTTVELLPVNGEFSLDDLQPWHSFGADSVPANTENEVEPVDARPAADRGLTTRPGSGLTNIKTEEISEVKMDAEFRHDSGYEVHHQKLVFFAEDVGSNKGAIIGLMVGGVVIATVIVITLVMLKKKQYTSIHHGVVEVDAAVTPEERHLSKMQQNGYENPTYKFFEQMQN

[2] = target: T1, Amyloid-beta precursor protein; assay: Binding affinity to beta amyloid (unknown origin) isolated from alzheimer's patient brain homogenates at 50 uM after 20 min by fluorescence microscopic analysis relative to thioflavin S-treated control; assay type: tissue-based

Structure (SMILES)	Ki [1] [nM]	Activity [2]
COc1ccc(/C=N/c2nc3ccc(OC)cc3s2)cc1	10.8	–
COc1ccc2nc(/N=C/c3ccc([N+](=O)[O-])cc3)sc2c1	515	–
COc1ccc2nc(/N=C/c3ccc(N(C)C)cc3)sc2c1	4.38	Active

Now from value to molecule:

Ki [1] [nM]	Activity [2]	Structure (SMILES)
103	–	COc1ccc2nc(/N=C/c3ccc(I)cc3)sc2c1
34.7	–	COc1ccc2nc(/N=C/c3ccc(O)cc3)sc2c1
106	–	COc1ccc2nc(/N=C/c3ccc(Br)cc3)sc2c1
